Tests used:
Assay in all cases: Test C preemergence
Assay type in all cases: in vivo
[1] = tested on: barnyardgrass (Echinochloa crus-galli); settings: for Plant response rating, Barnyardgrass: scale 0 to 100, 0 no effect, 100 complete control
Method in brief: (§1)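 After treatment with surfactant-containing formulations, either preemergence to seeds in loam-sand soil or postemergence to potted seedlings at 2–18 cm, plants were kept 13–15 d in a greenhouse. Observers then compared them with controls and assigned ratings, 0 signifying no effect and 100 complete control.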

[2] = tested on: blackgrass (Alopecurus myosuroides); settings: for Plant response rating, Blackgrass: scale 0 to 100, 0 no effect, 100 complete control
Method in brief: as §1

[3] = tested on: wheat (winter wheat, Triticum aestivum); settings: for Plant response rating, Wheat: scale 0 to 100, 0 no effect, 100 complete control
Method in brief: as §1

[4] = tested on: pigweed (Amaranthus retroflexus); settings: for Plant response rating, Pigweed: scale 0 to 100, 0 no effect, 100 complete control
Method in brief: as §1

[5] = tested on: crabgrass, large (large crabgrass, Digitaria sanguinalis); settings: for Plant response rating, Crabgrass, Large: scale 0 to 100, 0 no effect, 100 complete control
Method in brief: as §1

[6] = tested on: johnsongrass (Sorghum halepense); settings: for Plant response rating, Johnsongrass: scale 0 to 100, 0 no effect, 100 complete control
Method in brief: as §1

[7] = tested on: velvetleaf (Abutilon theophrasti); settings: for Plant response rating, Velvetleaf: scale 0 to 100, 0 no effect, 100 complete control
Method in brief: as §1

soybean (Glycine max) = settings: for Plant response rating, Soybean: scale 0 to 100, 0 no effect, 100 complete control
Method in brief: as §1

[8] = tested on: ryegrass, Italian (Italian ryegrass, Lolium multiflorum); settings: for Plant response rating, Ryegrass, Italian: scale 0 to 100, 0 no effect, 100 complete control
Method in brief: as §1

[9] = tested on: oilseed rape (Brassica napus); settings: for Plant response rating, Oilseed Rape: scale 0 to 100, 0 no effect, 100 complete control
Method in brief: as §1

[10] = tested on: foxtail, giant (giant foxtail, Setaria faberii); settings: for Plant response rating, Foxtail, Giant: scale 0 to 100, 0 no effect, 100 complete control
Method in brief: as §1

[11] = tested on: lambsquarters (Chenopodium album); settings: for Plant response rating, Lambsquarters: scale 0 to 100, 0 no effect, 100 complete control
Method in brief: as §1

[12] = tested on: waterhemp (common waterhemp, Amaranthus rudis); settings: for Plant response rating, Waterhemp: scale 0 to 100, 0 no effect, 100 complete control
Method in brief: as §1

[13] = tested on: ragweed (common ragweed, Ambrosia elatior); settings: for Plant response rating, Ragweed: scale 0 to 100, 0 no effect, 100 complete control
Method in brief: as §1

[14] = tested on: Galium (catchweed bedstraw, Galium aparine); settings: for Plant response rating, Galium: scale 0 to 100, 0 no effect, 100 complete control
Method in brief: as §1

[15] = tested on: morningglory (Ipomoea coccinea); settings: for Plant response rating, Morningglory: scale 0 to 100, 0 no effect, 100 complete control
Method in brief: as §1

[16] = tested on: nutsedge, yellow (yellow nutsedge, Cyperus esculentus); settings: for Plant response rating, Nutsedge, Yellow: scale 0 to 100, 0 no effect, 100 complete control
Method in brief: as §1

corn (Zea mays) = settings: for Plant response rating, Corn: scale 0 to 100, 0 no effect, 100 complete control
Method in brief: as §1

[17] = 31 g ai/ha, 0 is no effect, 100 is complete control

CN1CC(c2cccc(OC(F)F)c2)C(C(=O)Nc2ccc(F)cc2F)C1=O (stereo not drawn) [Compound 617]
Plant response rating (scale of 0 to 100), Barnyardgrass [1, 17]: 85 | Plant response rating, Barnyardgrass ([1]; 62 g ai/ha): 90 | Plant response rating, Barnyardgrass ([1]; 125 g ai/ha): 95 | Plant response rating, Barnyardgrass ([1]; 250 g ai/ha): 95 | Plant response rating (scale of 0 to 100), Blackgrass [2, 17]: 20 | Plant response rating, Blackgrass ([2]; 62 g ai/ha): 20 | Plant response rating, Blackgrass ([2]; 125 g ai/ha): 85 | Plant response rating, Blackgrass ([2]; 250 g ai/ha): 90 | Plant response rating (scale of 0 to 100), Wheat [3, 17]: 0 | Plant response rating, Wheat ([3]; 62 g ai/ha): 15 | Plant response rating, Wheat ([3]; 125 g ai/ha): 45 | Plant response rating, Wheat ([3]; 250 g ai/ha): 80 | Plant response rating (scale of 0 to 100), Pigweed [4, 17]: 10 | Plant response rating, Pigweed ([4]; 62 g ai/ha): 20 | Plant response rating, Pigweed ([4]; 125 g ai/ha): 45 | Plant response rating, Pigweed ([4]; 250 g ai/ha): 75 | Plant response rating (scale of 0 to 100), Crabgrass, Large [5, 17]: 95 | Plant response rating, Crabgrass, Large ([5]; 62 g ai/ha): 95 | Plant response rating, Crabgrass, Large ([5]; 125 g ai/ha): 100 | Plant response rating, Crabgrass, Large ([5]; 250 g ai/ha): 100 | Plant response rating (scale of 0 to 100), Johnsongrass [6, 17]: 25 | Plant response rating, Johnsongrass ([6]; 62 g ai/ha): 30 | Plant response rating, Johnsongrass ([6]; 125 g ai/ha): 65 | Plant response rating, Johnsongrass ([6]; 250 g ai/ha): 75 | Plant response rating (scale of 0 to 100), Velvetleaf [7, 17]: 10 | Plant response rating, Velvetleaf ([7]; 62 g ai/ha): 10 | Plant response rating, Velvetleaf ([7]; 125 g ai/ha): 20 | Plant response rating, Velvetleaf ([7]; 250 g ai/ha): 45 | Plant response rating (scale of 0 to 100), Soybean (soybean (Glycine max); [17]): 0 | Plant response rating, Soybean (soybean (Glycine max); 62 g ai/ha): 10 | Plant response rating, Soybean (soybean (Glycine max); 125 g ai/ha): 0 | Plant response rating, Soybean (soybean (Glycine max); 250 g ai/ha): 20 | Plant response rating (scale of 0 to 100), Ryegrass, Italian [8, 17]: 10 | Plant response rating, Ryegrass, Italian ([8]; 62 g ai/ha): 45 | Plant response rating, Ryegrass, Italian ([8]; 125 g ai/ha): 50 | Plant response rating, Ryegrass, Italian ([8]; 250 g ai/ha): 90 | Plant response rating (scale of 0 to 100), Oilseed Rape [9, 17]: 30 | Plant response rating, Oilseed Rape ([9]; 62 g ai/ha): 85 | Plant response rating, Oilseed Rape ([9]; 125 g ai/ha): 90 | Plant response rating, Oilseed Rape ([9]; 250 g ai/ha): 90 | Plant response rating (scale of 0 to 100), Foxtail, Giant [10, 17]: 90 | Plant response rating, Foxtail, Giant ([10]; 62 g ai/ha): 90 | Plant response rating, Foxtail, Giant ([10]; 125 g ai/ha): 95 | Plant response rating, Foxtail, Giant ([10]; 250 g ai/ha): 98 | Plant response rating (scale of 0 to 100), Lambsquarters [11, 17]: 30 | Plant response rating, Lambsquarters ([11]; 62 g ai/ha): 55 | Plant response rating, Lambsquarters ([11]; 125 g ai/ha): 70 | Plant response rating, Lambsquarters ([11]; 250 g ai/ha): 80 | Plant response rating (scale of 0 to 100), Waterhemp [12, 17]: 20 | Plant response rating, Waterhemp ([12]; 62 g ai/ha): 25 | Plant response rating, Waterhemp ([12]; 125 g ai/ha): 70 | Plant response rating, Waterhemp ([12]; 250 g ai/ha): 80 | Plant response rating (scale of 0 to 100), Ragweed [13, 17]: 10 | Plant response rating, Ragweed ([13]; 62 g ai/ha): 10 | Plant response rating, Ragweed ([13]; 125 g ai/ha): 40 | Plant response rating, Ragweed ([13]; 250 g ai/ha): 70 | Plant response rating (scale of 0 to 100), Galium [14, 17]: 0 | Plant response rating, Galium ([14]; 62 g ai/ha): 85 | Plant response rating, Galium ([14]; 125 g ai/ha): 85 | Plant response rating, Galium ([14]; 250 g ai/ha): 85 | Plant response rating (scale of 0 to 100), Morningglory [15, 17]: 0 | Plant response rating, Morningglory ([15]; 62 g ai/ha): 0 | Plant response rating, Morningglory ([15]; 125 g ai/ha): 25 | Plant response rating, Morningglory ([15]; 250 g ai/ha): 40 | Plant response rating (scale of 0 to 100), Nutsedge, Yellow [16, 17]: 0 | Plant response rating, Nutsedge, Yellow ([16]; 62 g ai/ha): 0 | Plant response rating, Nutsedge, Yellow ([16]; 125 g ai/ha): 20 | Plant response rating, Nutsedge, Yellow ([16]; 250 g ai/ha): 35 | Plant response rating (scale of 0 to 100), Corn (corn (Zea mays); [17]): 0 | Plant response rating, Corn (corn (Zea mays); 62 g ai/ha): 40 | Plant response rating, Corn (corn (Zea mays); 125 g ai/ha): 75 | Plant response rating, Corn (corn (Zea mays); 250 g ai/ha): 80

— patent US12077503B2, “Substituted cyclic amides and their use as herbicides” (FMC CORPORATION, priority 2015, dated 2024)
